In US11352338B2, “Substituted isoindolinones” (BioTheryX, Inc., priority 2018, dated 2022):

Experiments:
IL-1β = IL-1β inhibition, LPS-induced PBMCs or CD14+ monocytes, Meso Scale assay; format: cell-based; conditions: LPS 100 ng/mL 18-24 h, read-out: % Inhibition compared to DMSO, IL-1β; for inhibition at 1 µM: tested at 1 μM; for inhibition at 10 µM: tested at 10 μM
Protocol: (§1) Either frozen primary blood mononuclear cells (PBMCs) or frozen CD14+ mobilized peripheral blood monocytes were purchased from AllCells (PB003F, Normal Peripheral Blood MNC (Alameda, Calif.)). Cells were quick thawed, washed 1-time with RPMI-1640 (10% FBS/1% Pen-Strep) and plated in 96 well plates at 200,000 cells per well. Cells were pretreated with DMSO only or with the indicated compound for 1 h and then induced with 100 ng/mL lipopolysaccharide (LPS) for 18-24 h. The supernatant was analyzed for IL-1β, IL-6, and TNFα, using Meso Scale assay according to manufacturer's protocol. The negative control wells were treated with DMSO.
(§2) IL-1β, IL-6 and TNFα activities were tested at two different concentrations (1 μM and 10 μM) and the results are shown in Tables 2 and 3 respectively.

PDE6D = molecular target: T1, PDE6D (Homo sapiens, UniProt O43924+Q96SW2); assay: Western blot, degradation of cellular PDE6D in MV-4-11 cells; format: cell-based; conditions: for Dmax at 1 µM: MV4-11, tested at 1 μM, MV-4-11 cells, 6-8 hours, read-out: % Degradation compared to DMSO, PDE6D
T1 construct: endogenous in cells; host or cells: MV-4-11
T1 sequence (O43924 whole entry): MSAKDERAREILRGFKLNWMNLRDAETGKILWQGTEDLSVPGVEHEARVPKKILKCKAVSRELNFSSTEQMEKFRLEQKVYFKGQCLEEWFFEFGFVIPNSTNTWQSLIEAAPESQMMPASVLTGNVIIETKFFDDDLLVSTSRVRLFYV
T1 sequence (Q96SW2 whole entry): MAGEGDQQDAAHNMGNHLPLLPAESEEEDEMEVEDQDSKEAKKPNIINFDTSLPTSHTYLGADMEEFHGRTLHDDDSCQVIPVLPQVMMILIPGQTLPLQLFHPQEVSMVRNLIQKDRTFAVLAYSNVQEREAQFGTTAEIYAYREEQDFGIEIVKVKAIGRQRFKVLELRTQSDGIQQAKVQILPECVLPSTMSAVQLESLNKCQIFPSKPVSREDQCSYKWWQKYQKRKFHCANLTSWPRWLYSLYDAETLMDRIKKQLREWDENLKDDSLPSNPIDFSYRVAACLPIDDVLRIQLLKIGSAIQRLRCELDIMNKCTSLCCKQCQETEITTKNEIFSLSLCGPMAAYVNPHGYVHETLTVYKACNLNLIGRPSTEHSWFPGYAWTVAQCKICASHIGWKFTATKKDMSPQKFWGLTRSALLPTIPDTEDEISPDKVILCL
T1 sequence (Q16531 whole entry partner): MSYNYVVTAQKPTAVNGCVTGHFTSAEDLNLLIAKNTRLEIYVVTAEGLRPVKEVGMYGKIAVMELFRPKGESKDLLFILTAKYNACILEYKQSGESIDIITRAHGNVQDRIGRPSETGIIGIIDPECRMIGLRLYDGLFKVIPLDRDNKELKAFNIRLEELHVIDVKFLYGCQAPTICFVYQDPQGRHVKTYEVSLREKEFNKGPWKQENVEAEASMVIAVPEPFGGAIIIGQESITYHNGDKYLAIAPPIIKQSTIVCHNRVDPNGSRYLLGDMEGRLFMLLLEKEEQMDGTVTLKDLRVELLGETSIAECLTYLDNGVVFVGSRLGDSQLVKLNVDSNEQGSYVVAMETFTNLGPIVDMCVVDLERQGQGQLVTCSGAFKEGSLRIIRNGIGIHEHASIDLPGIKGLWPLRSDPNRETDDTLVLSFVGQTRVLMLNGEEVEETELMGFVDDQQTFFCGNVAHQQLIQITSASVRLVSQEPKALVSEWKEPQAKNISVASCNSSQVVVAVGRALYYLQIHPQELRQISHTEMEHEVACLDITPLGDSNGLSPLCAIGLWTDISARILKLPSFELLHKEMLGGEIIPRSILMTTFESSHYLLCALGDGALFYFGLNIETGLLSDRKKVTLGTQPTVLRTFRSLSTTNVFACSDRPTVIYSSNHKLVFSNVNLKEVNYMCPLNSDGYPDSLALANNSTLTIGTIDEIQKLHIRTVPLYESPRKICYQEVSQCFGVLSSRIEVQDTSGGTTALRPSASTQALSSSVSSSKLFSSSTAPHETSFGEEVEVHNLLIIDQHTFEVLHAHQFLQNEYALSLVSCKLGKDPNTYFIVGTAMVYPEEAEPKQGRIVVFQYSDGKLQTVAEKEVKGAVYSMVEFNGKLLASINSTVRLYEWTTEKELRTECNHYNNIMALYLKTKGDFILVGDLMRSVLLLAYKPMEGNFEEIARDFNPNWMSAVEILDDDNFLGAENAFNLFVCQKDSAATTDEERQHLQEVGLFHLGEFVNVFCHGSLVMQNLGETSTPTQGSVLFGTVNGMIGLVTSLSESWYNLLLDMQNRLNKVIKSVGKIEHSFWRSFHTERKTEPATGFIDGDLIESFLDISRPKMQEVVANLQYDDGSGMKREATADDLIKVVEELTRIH
Protocol: (§3) MV-4-11 cells were grown in RPMI 1640 media supplemented with 10% fetal bovine serum, streptomycin and penicillin.
(§4) Cells were cultured at approximately 10^6 cells per mL and incubated in DMSO or the indicated compounds for 6-8 hours. Whole cell extracts were prepared using RIPA lysis buffer according to manufacturer's protocol (Pierce). Briefly, 4×10^6 cells were washed once in PBS, the cell pellets were resuspended in RIPA lysis buffer and allowed to incubate for 15 minutes on ice. Cells debris was removed by centrifugation and the cleared whole cell lysates were transferred to new tubes for further analysis.
(§5) For Western blot analysis, whole cell protein extracts were separated on 4-12% SDS-polyacrylamide gels, transferred to nitrocellulose and probed with the indicated primary antibodies. Membranes were subsequently washed and probed with the appropriate IRDye secondary antibodies (LI-COR). The signal was detected using the Odyssey Imaging System (LI-COR).
(§6) The following antibodies were used in these studies: Anti-PDE6D antibody: Santa Cruz Biotechnology, sc-166854 (Dallas, Tex.); Anti-Ikaros: Abcam, ab191394 (Cambridge, Mass.); anti-CK1α antibody: Abcam, ab108296 (Cambridge, Mass.); β-Actin (8H10D10) mouse monoclonal antibody: Cell Signaling Technology, #3700 (Danvers, Mass.); IRDye 680RD Goat anti-rabbit antibody: LI-COR, 926-68071 (Lincoln, Nebr.); and IRDye 800CW Goat anti-mouse antibody: LI-COR, 926-32210 (Lincoln, Nebr.).
(§7) The % degradation values are reported as “A”, “B”, “C”, or “D.” “A” represents a % degradation value of less than 25% (value<25%); “B” represents a % degradation value of equal to or more than 25% and less than 50% (25%≤value<50%); “C” represents a % degradation value of equal to or more than 50% and less than 75% (50%≤value<75%); and “D” represents a % degradation value of equal to or more than 75% (value≥75%). […] was used as control.

TNFα = TNFα inhibition, LPS-induced PBMCs or CD14+ monocytes, Meso Scale assay; format: cell-based; conditions: LPS 100 ng/mL 18-24 h, read-out: % Inhibition compared to DMSO, TNFα; for inhibition at 1 µM: tested at 1 μM; for inhibition at 10 µM: tested at 10 μM
Protocol: as §1, §2

CK1α = molecular target: T2, CK1α (Homo sapiens, UniProt P48729+Q96SW2); assay: Western blot, degradation of cellular CK1α in MV-4-11 cells; format: cell-based; conditions: MV4-11, tested at 1 μM, 6-8 hours, read-out: % Degradation compared to DMSO, CK1α
T2 construct: endogenous in cells; host or cells: MV-4-11
T2 sequence (P48729 whole entry): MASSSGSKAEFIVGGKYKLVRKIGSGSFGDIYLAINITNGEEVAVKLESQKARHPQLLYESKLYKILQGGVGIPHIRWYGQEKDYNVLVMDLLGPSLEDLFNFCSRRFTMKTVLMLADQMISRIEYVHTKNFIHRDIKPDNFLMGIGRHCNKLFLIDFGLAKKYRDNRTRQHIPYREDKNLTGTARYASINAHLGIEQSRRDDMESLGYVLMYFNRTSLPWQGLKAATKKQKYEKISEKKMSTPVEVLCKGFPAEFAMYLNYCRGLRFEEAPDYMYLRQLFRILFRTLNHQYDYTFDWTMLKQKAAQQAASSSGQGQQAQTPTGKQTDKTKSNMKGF
T2 sequence (Q96SW2 whole entry): as the sequence (Q96SW2 whole entry) above
T2 sequence (Q16531 whole entry partner): as the sequence (Q16531 whole entry partner) above
Protocol: as §3, §4, §5, §6, §7

IL-2 = IL-2 inhibition assay, anti-CD3 (OKT3) stimulated PBMCs, Mesoscale IL-2 analysis; format: cell-based, human; conditions: for fold induction at 1 µM / fold induction at 10 µM: Homo sapiens, PBMC, PBMCs on anti-CD3, 24 h, fold difference from DMSO control, read-out: IL-2, % Induction compared to DMSO
Protocol: For the IL-2 analysis, 96 well plates were precoated with 1 μg/mL anti-human CD3 antibody (OKT3, eBioscience Inc., San Diego, Calif.). After washing with PBS, the indicated compound was added (50 μL/well) followed by PBMCs diluted at 3-4 million cells/mL (150 μL/well). Plates were incubated for 24 h and the supernatants collected for Mesoscale IL-2 analysis. IL-2 activity is measured as fold difference from the DMSO control. […]
In Table 4, the fold-change values are reported as “A”, “B”, “C”, or “D”. “A” represents a fold-change value of equal to or less than 0.5 (value≤0.5); “B” represents a fold-change value of more than 0.5 and equal to or less than 1 (0.5<value≤1); “C” represents a fold-change value of more than 1 and less than 1.5 (1<value<1.5); and “D” represents a fold-change value of equal to or more than 1.5 (value≥1.5).

Ikaros = molecular target: T3, Ikaros (Homo sapiens, UniProt Q13422+Q96SW2); assay: Western blot, degradation of cellular Ikaros in MV-4-11 cells; format: cell-based; conditions: MV4-11, tested at 1 μM, 6-8 hours, read-out: % Degradation compared to DMSO, Ikaros
T3 construct: endogenous in cells; host or cells: MV-4-11
T3 sequence (Q13422 whole entry): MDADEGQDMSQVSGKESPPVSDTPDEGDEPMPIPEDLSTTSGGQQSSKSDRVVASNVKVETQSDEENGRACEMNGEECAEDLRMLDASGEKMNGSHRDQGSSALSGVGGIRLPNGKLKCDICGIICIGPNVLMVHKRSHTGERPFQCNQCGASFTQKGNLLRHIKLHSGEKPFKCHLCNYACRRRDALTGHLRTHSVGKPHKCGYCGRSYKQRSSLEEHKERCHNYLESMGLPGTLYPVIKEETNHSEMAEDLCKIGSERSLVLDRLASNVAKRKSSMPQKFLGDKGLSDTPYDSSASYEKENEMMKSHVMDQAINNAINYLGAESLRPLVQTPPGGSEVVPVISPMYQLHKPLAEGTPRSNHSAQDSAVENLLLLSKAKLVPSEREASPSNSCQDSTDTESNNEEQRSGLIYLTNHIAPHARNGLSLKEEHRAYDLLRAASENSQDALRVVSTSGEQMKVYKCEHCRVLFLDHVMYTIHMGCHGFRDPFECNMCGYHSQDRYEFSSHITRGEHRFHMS
T3 sequence (Q96SW2 whole entry): as the sequence (Q96SW2 whole entry) above
T3 sequence (Q16531 whole entry partner): as the sequence (Q16531 whole entry partner) above
Protocol: as §3, §4, §5, §6, §7

IL-6 = IL-6 inhibition, LPS-induced PBMCs or CD14+ monocytes, Meso Scale assay; format: cell-based; conditions: LPS 100 ng/mL 18-24 h, read-out: % Inhibition compared to DMSO, IL-6; for inhibition at 1 µM: tested at 1 μM; for inhibition at 10 µM: tested at 10 μM
Protocol: as §1, §2

Row | Dmax at 1 µM (PDE6D) [%] | Dmax at 1 µM (CK1α) [%] | Dmax at 1 µM (Ikaros) [%] | Structure (SMILES) | inhibition at 1 µM (IL-1β) [%] | inhibition at 10 µM (IL-1β) [%] | inhibition at 1 µM (TNFα) [%] | inhibition at 10 µM (TNFα) [%] | fold induction at 1 µM (IL-2) | fold induction at 10 µM (IL-2; 10 μM) | inhibition at 1 µM (IL-6) [%] | inhibition at 10 µM (IL-6) [%] | % Degradation of PDE6D (PDE6D; 1 μM, comparison with comparative compound A) | effect on IL-2 (in words) (IL-2; 10 μM) | IL-2, % Induction compared to DMSO (IL-2; 10 μM, comparison with comparative compound B)
1 | < 25 | < 25 | 25 to 50 | O=C1CCC(N2Cc3c(cc(C(F)(F)F)cc3C3CCCC3)C2=O)C(=O)N1 (stereo not drawn) [Compound 29] | < 10 | < 10 | < 10 | 10 to 25 | 0.5 to 1 | 0.5 to 1 | 10 to 25 | < 10 |  |  | 
2 | < 25 | < 25 | < 25 | CC1(C)CC=C(c2cc(F)cc3c2CN(C2CCC(=O)NC2=O)C3=O)CC1 (stereo not drawn) [Compound 8] | < 10 | < 10 | 10 to 25 | 25 to 50 | 0.5 to 1 | 0.5 to 1 | 10 to 25 | 10 to 25 |  |  | 
3 | < 25 | < 25 | < 25 | O=C1CCC(N2Cc3c(cc(Cl)cc3C3CCCC3)C2=O)C(=O)N1 (stereo not drawn) [Compound 28] | < 10 | < 10 | 10 to 25 | 10 to 25 | 1 to 1.5 | 0.5 to 1 | < 10 | 10 to 25 |  |  | 
4 | ≥ 75 | ≥ 75 | < 25 | C[C@@H](c1cc(F)cc2c1CN(C1CCC(=O)NC1=O)C2=O)C(F)(F)F (stereo partly drawn) [Compound 22] | < 10 | 10 to 25 | < 10 | 25 to 50 | ≤ 0.5 | ≤ 0.5 | < 10 | 10 to 25 | D (a % degradation value of equal to or more than 75% (value≥75%)) | strong inhibition of IL-2 (downregulation) | A (a fold-change value of equal to or less than 0.5 (value≤0.5))
5 | ≥ 75 | 50 to 75 | < 25 | CC(C)c1cc(F)cc2c1CN(C1CCC(=O)NC1=O)C2=O (stereo not drawn) [Compound 34, 3-(6-fluoro-4-isopropyl-1-oxoisoindolin-2-yl)piperidine-2,6-dione] | < 10 |  | 25 to 50 |  | ≤ 0.5 |  | < 10 |  |  |  | 
6 | 25 to 50 | < 25 | < 25 | CCC1(N2Cc3c(cc(F)cc3C3CCCC3)C2=O)CCC(=O)NC1=O (stereo not drawn) [Compound 18, 3-(4-Cyclopentyl-6-fluoro-1-oxoisoindolin-2-yl)-3-ethylpiperidine-2,6-dione] | < 10 | 10 to 25 | < 10 | 25 to 50 | 1 to 1.5 | 0.5 to 1 | < 10 | < 10 |  |  | 
7 | ≥ 75 | 25 to 50 | < 25 | O=C1CCC(N2Cc3c(cccc3C3CCCC3)C2=O)C(=O)N1 (stereo not drawn) [Compound 2] | < 10 | 10 to 25 | < 10 | 10 to 25 | 0.5 to 1 | 0.5 to 1 | 10 to 25 | 10 to 25 |  |  | 
8 | ≥ 75 | 50 to 75 | 25 to 50 | O=C1CCC(N2Cc3c(cc(F)cc3C3CCC3)C2=O)C(=O)N1 (stereo not drawn) [Compound 20] | < 10 | < 10 | 10 to 25 | 25 to 50 | ≤ 0.5 | ≤ 0.5 | < 10 | < 10 |  |  | 
